Measurements from patent US20130123264A1, “COMPOSITIONS AND METHODS FOR TREATMENT OF INFLAMMATORY BOWEL DISORDERS AND INTESTINAL CANCERS” (priority 2011, published 2013).
In brackets after ≈: the same amount, converted by molar mass. Entries after “also recorded” stand apart in the source; their conditions may differ.

Assays:
[1] = in water; cited from earlier work
[2] = in vivo; cited from earlier work
[3] = system: HCT116 colon cancer cells; assay: cGMP content of colon cancer cells by competitive ELISA; details: colon cancer cell lines, 2 hours incubation
colon explants [4] = assay: Redox stress (DCF fluorescence) in colon explants; type: cell-based, mouse; details: 100 uM
Method: FIG. 15A is a bar graph showing DCF fluorescence of extracts from colon explants with (cGMP, open bars) or without (control, filled bars) cGMP treatment.
(§1) Colons were removed from sacrificed animals and incubated with 20 μM DCF for 30 minutes, then homogenized and the fluorescence measured (at FITC wavelengths; 485/535 nm). Specimens were incubated directly (30 min time point), or incubated for 30 min or 90 min under standard tissue culture conditions before adding DCF for the final 30 min (60 and 120 min time points).

colon explants [5] = assay: Antioxidant gene expression in colon explants (RT-PCR, Western blotting); type: cell-based, mouse; details: 100 uM, 3-4 hours
Method: Explants of proximal and distal colon from mice were treated for 3-4 hours with 100 uM 8Br-cGMP and then the mucosa was harvested for analysis of antioxidant gene and protein expression by RT-PCR and Western blotting. Blots were reprobed for b-actin expression as a loading control.
In addition to attenuating proliferation, the activation of Foxo4 can upregulate antioxidant genes. To determine whether activation of endogenous PKG could affect the expression of antioxidant genes in the colon, explants of proximal and distal colon from mice were treated for 3-4 hours with 100 uM 8Br-cGMP and then the mucosa was harvested for analysis of antioxidant genes expression by RT-PCR or Western blotting. HPRT and b-actin were used as loading controls.

JNK = assay: JNK-P in colon explants (immunoblotting); type: cell-based, mouse
Method: The relative expression of DUSP10 was measured by RT-PCR in wild type and knockout mice (Prkg2+/+ and Prkg2−/−), LS174T and HT29 colon cancer cells with or without PKG2 expression, and in colon explants treated with 8BrcGMP. Mucosa from different parts of the mouse digestive tract were analyzed by immunoblotting for JNKP, total JNK, DUSP10 and PKG2. Immunoblotting of ileum and proximal colon explants with or without 8Br-cGMP treatment to activate PKG2 was also performed.

CD1 mouse colon explants = assay: cGMP content of mucosa from mouse colon explants incubated in vitro (ELISA); type: cell-based; details: 2 hours
Method: The cGMP levels were standardized for protein content using OD280 of the extracts. […] Error bars indicate SEM. Asterisks indicate significance relative to control (p<0.05). CD1 mouse colon explants were incubated with PDE5 inhibitors in vitro. After 2 hours, the mucosa was harvested for analysis of cGMP content by ELISA (FIG. 10A).

colon mucosa [6] = assay: cGMP content of colon mucosa after intraperitoneal injection (ELISA); type: in vivo, mouse
Method: The cGMP levels were standardized for protein content using OD280 of the extracts. […] Error bars indicate SEM. Asterisks indicate significance relative to control (p<0.05). […] FIG. 16A is a bar graph of ileum, proximal and distal tissue versus cGMP (pmol/mg protein). Mice were treated by intraperitoneal injection with PBS in vehicle (ctrl) or Vardenafil in vehicle (Vard.) (equivalence to human dose based on body weight). Colon mucosa was harvested 3 hrs later for analysis of cGMP content with ELISA kit. cGMP level was measured relative to total protein loading. […] Same WT/KO tissues were analyzed for apoptosis (TUNEL). Error bars indicate SEM and asterisks show significance (p<0.05). […] The mice were sacrificed 4 hours later and colon mucosa was harvested for analysis of cGMP content by ELISA. The cGMP levels were standardized for protein content using OD280 of the extracts. The error bars show SEM (FIG. 10B).

colon mucosa [7] = assay: Colon mucosa homeostasis after 7 days of treatment (TUNEL, BrdU/Ki-67, goblet cell staining); type: in vivo, mouse; details: wild type mice, 5 mg/kg IP b.i.d. 7 days; for epithelial cell death / apoptosis (TUNEL) in colon / mature goblet cell numbers in colon: 5 mg/kg
Source text: Sections were stained for apoptotic cells using TUNEL in control and treated. TUNEL positive cells were found. […] FIG. 12B Quantitation of cell proliferation in the colon mucosa by BrdU incorporation. Asterisks in FIGS. 12A and 12B show statistical significance, p<0.05 of treated relative to control.
Mature goblet cells were counted in different sections of the colon following staining with Alcian blue-periodic acid schiff. FIG. 11A: Different regions of the gut (ilium of small intestine, ascending and descending portions of the colon). FIG. 11B: Relative mature goblet cell number in different sections of the proximal colon. Asterisks indicate significance (p<0.05, n=3).
Immunohistochemistry of tissue samples from Vardenafil treated and control mice was performed.

[8] = system: colon mucosa of Prkg2−/− mice; assay: Colon mucosa homeostasis after 7 days of treatment in PKG2 knockout animals; type: in vivo, mouse
Method: FIG. 16A is a bar graph of ileum, proximal and distal tissue versus cGMP (pmol/mg protein). […] Colon mucosa was harvested 3 hrs later for analysis of cGMP content with ELISA kit. cGMP level was measured relative to total protein loading. […] Same WT/KO tissues were analyzed for apoptosis (TUNEL). Error bars indicate SEM and asterisks show significance (p<0.05).
FIGS. 17A, 17B, 17C, and 17D are line graphs of ascending, trans, and descending tissue samples versus goblet cells/crypt (17A and B) or CgA/crypt (17C and D). […] Error bars show SEM, N>3, *p<0.05, by two-tailed t-test.
FIGS. 14A-14C show quantification of mature goblet cells in the ascending (A) and transverse colon (B) of wild type and PKG2 knockout animals. […] The increase in goblet cells observed in the wild type animals was not observed in the PKG2-deficient animals, which indicates the involvement of PKG2 in this process.

DSS-induced colitis = assay: DSS-induced murine colitis model; type: in vivo, mouse
Method: FIG. 20A is a line graph of days of treatment versus disease activity index (DAI). […] The animal weight and stool-composition (diarrhea and bleeding) were recorded daily and are shown as disease activity index. Error bars indicate SD (n=3) and asterisks denote statistical significance (p<0.05, t-test). FIG. 20B is a line graph of proximal, mid, and distal tissue samples versus TUNEL/Crypt. Some mice were sacrificed at Day 5 with DSS for pathological analysis. Descending colons of mice treated with control (Ctrl) and Vardenafil (Vard.) were harvested and stained for apoptosis (TUNEL). Positive cells were subjected to quantification and the quantified cells were graphed. Error bars indicate SEM (n=3) and asterisks denote statistical significance (p<0.05 t-test).
Control animals were injected with PBS vehicle. After 5 days the DSS was replaced with water. Incidence and severity of diarrhea and body weight were recorded daily and combined in an index of disease severity.
The best characterized mouse model of IBD involves administration of dextran sulfate-sodium (DSS) in the drinking water, and this is toxic specifically to luminal epithelial cells of the distal colon.

colon mucosa [9] = assay: Redox stress in colon mucosa by DCF fluorescence after IP treatment; type: in vivo, mouse; details: 4 h, p>0.05 by t-test (n=3)
Method: After 4 h the animals were sacrificed and the colon mucosa was harvested for analysis of redox stress using DCF fluorescence. Error bars indicate standard deviation (n=3), but p>0.05 by t-test (FIG. 15B)
as §1

CCCc1nn(C)c2c(=O)nc(-c3cc(S(=O)(=O)N4CCN(C)CC4)ccc3OCC)[nH]c12 [Sildenafil, sildenafil]
Solubility [1]: 3500 µg/mL (≈ 7.37 mM) | t1/2 [2]: 3 to 5 h | intracellular cGMP levels [3]: significantly increased

Nc1nc2c(nc(Br)n2[C@@H]2O[C@@H]3COP(=O)(O)O[C@H]3[C@H]2O)c(=O)[nH]1 [8Br-cGMP]
redox stress (DCF fluorescence) in colon explants (colon explants [4]): decreased | antioxidant gene expression in colon explants (colon explants [5]): broad increase | basal activated JNK-P levels in colon explants (JNK): decrease

CCCc1nc(C)c2c(=O)[nH]c(-c3cc(S(=O)(=O)N4CCN(CC)CC4)ccc3OCC)nn12 [Vardenafil, vardenafil]
cGMP levels in mouse colon explants (CD1 mouse colon explants): significantly increase | cGMP in the proximal colon epithelium (colon mucosa [6]; IP, lesser extent in terminal ileum and distal colon): rapidly increased | intracellular cGMP levels in mouse colon mucosa (colon mucosa [6]; intraperitoneal injection, mucosa harvested 4 hours later): significant increase | crypt proliferation (BrdU, Ki-67) in colon (colon mucosa [7]): reduced | epithelial cell death / apoptosis (TUNEL) in colon (colon mucosa [7]): reduction; also recorded: reduced | mature goblet cell numbers in colon (colon mucosa [7]): dramatic increase | epithelial cell death / apoptosis (TUNEL) in colon (colon mucosa [7]; listed as vardenafil): reduced | mature goblet cell numbers in colon (colon mucosa [7]; listed as vardenafil): significantly increased | increase in goblet cells ([8]; PKG2-deficient animals, 5 mg/kg IP b.i.d. 7 days): not observed | reduction in apoptosis ([8]; PKG2 knockouts, 5 mg/kg IP b.i.d. 7 days): not observed | homeostasis in Prkg2−/− animals ([8]; i.p. for several days): did not affect | death of animals (DSS-induced colitis; 5% DSS, n=4, half the untreated animals died): 25% | DSS induced apoptosis (TUNEL) (DSS-induced colitis; Day 5 with DSS): inhibited | DSS induced activation of JNK (DSS-induced colitis; descending colon, JNK-phospho T183/Y185): inhibited | DUSP10 levels in the colon mucosa (DSS-induced colitis; wild type mice): increased | redox stress levels in the colon mucosa (DCF fluorescence) (colon mucosa [9]): partly mimic antioxidant effects of exogenous cGMP; also recorded: could indeed affect redox stress levels | Solubility [1]: 110 µg/mL (≈ 0.225 mM) | t1/2 [2]: 4 to 5 h | intracellular cGMP levels [3]: significantly increased

CN1CC(=O)N2[C@H](c3ccc4c(c3)OCO4)c3[nH]c4ccccc4c3C[C@@H]2C1=O [Tadalafil, tadalafil]
t1/2 [2]: 17.5 h
